Experimental findings from patent publication US7517657B2, “Peptides for detecting anti-double stranded DNA antibody and uses thereof” (Albert Einstein College of Medicine of Yeshiva University, priority 1995, dated 2009) are described below.

One assay relates to R4A binding to dsDNA. In words: Peptide inhibition of R4A binding to dsDNA by ELISA. Also noted: species or system mouse. Particulars: fluid phase inhibitor, FIG. 3, FIG. 4. The method, then: FIG. 3 depicts peptide inhibition of R4A (1 μg/ml) binding to calf thymus double stranded DNA by Enzyme Linked ImmunoSorbent Assay.
FIG. 4 sets forth a graph representing DWEYS (L and D peptides) (SEQ ID NO:2) inhibition of R4A binding to dsDNA. IMMULON® II plates were coated overnight with 100 μg/ml salmon sperm dsDNA. R4A at a final concentration of 5 μg/ml was incubated at varying concentrations of L or D DWEYS (SEQ ID NO:2) and transferred to the plate precoated with dsDNA. After a 2-hr incubation at 37° C., the plates were washed, and alkaline phosphotase-linked goat anti-mouse IgG2b antibody was added for 1 hour at 37° C. OD after addition of substrate was monitored at 405 nm.
On the technique in general: An ELISA detects its analyte on a solid surface through an enzyme-linked reagent.

For assay [1], the system named is production of anti-dsDNA antibodies. Nature of the assay: Immunization of nonautoimmune BALB/c mice with peptide in complete Freund's adjuvant. The format is in vivo. The settings on record: unpublished work. The source says:
It is also noteworthy that both the R4A and 52b3 peptides have aromatic residues, tryptophan and tyrosine. […] This apparent difference in specificity is consistent with the finding that they bind distinct peptides. It is also noteworthy that both the R4A and 52b3 consensus motifs have aromatic residues, tryptophan and tyrosine. It is tempting to speculate that the negatively charged aspartate and glutamate residues are analogous to phosphate groups, the aromatic tryptophan residues are analogous to the pentose sugar backbone, and the tyrosine and serine residues are analogous to the hydroxyl groups attached to the pentose moiety in the DNA molecule, thus explaining why these peptides are mimics of DNA. One potential utility of identifying peptide mimotopes for dsDNA is to try to determine if the actual eliciting antigen for production of these antibodies or target antigen for deposition in kidneys might be a protein molecule. […] It is interesting to speculate whether the murine homolog of chicken collagen XIV also has a splice variant containing the same or highly homologous peptide sequence that would be recognized by the R4A antibody.

With “Asp-Trp-Glu-Tyr-Ser (DWEYS; printed: Asp-Trp-Glu-Tyr-Ser)”, the “Inhibition of R4A binding to dsDNA” value in the assay on R4A binding to dsDNA is recorded as “inhibited dsDNA binding by the appropriate antibody only”. Also, the “Production of anti-dsDNA antibodies after immunization” value in assay [1] is “leads to production of anti-dsDNA antibodies”.
